Assay results as given in paper PMC12607897, “Inhibition of HIV-1 replication by primer RNA packaging inhibitors” (mBio, 2025).

Assays:
[1] = tested on: HIV-1 NL4-3 virus particles; assay: digital PCR / RT-dPCR of minus-strand strong stop cDNA and viral RNA in particles; format: cell-based; conditions: 10 µM drug, 72 and 96 h after infection
Description: We used digital RT-PCR and digital PCR to determine the viral mRNA and minus-strand strong stop viral cDNA content of the particles (Fig. 7; Fig. S6). The amount of early viral cDNA produced in the HIV-1 particles is a measure of the efficiency of the initiation step of reverse transcription, which requires the packaging of tRNA3^Lys at the budding step, the primer for cDNA synthesis.
Fig 7 Effect of drugs on viral synthesis of minus-strand strong stop cDNA. Viruses were harvested from the culture medium after 72 (red) or 96 h (blue) of infection of MT4 cells with NL4-3 viruses. Minus-strand strong stop viral DNA and viral RNA (vRNA) were quantified by digital PCR and RT-dPCR, respectively. Viruses were harvested from cultures grown in the presence of 10 µM of azelastine (Aze), lacidipine (Lac), or cilnidipine (Cil), or H2O or DMSO as controls. Values and the associated standard deviations (n = 3) are expressed as the ratios of the values obtained for the H2O or DMSO controls. […].
MT4 cells (2 × 10^6 cells) were infected with the NL4-3 viruses. After 4–5 h of infection at 37°C, cells were twice washed with PBS, incubated 5 min at 37°C in 0.25% trypsin-EDTA solution (Gibco) to eliminate viruses remaining in the medium, incubated 5 min at 37°C in complete RPMI medium, twice washed with PBS, resuspended in RPMI medium at a cell density of 200 × 10^3 cells/mL and incubated with 10 µM of azelastine (25 mM stock solution in H20), or lacidipine and cilnidipine (25 mM stock solution in DMSO). A second aliquot of the inhibitors was added to the culture medium 48 h after infection. […] All RNA and DNA quantifications were performed by digital PCR and RT-qPCR on a QIAcuity instrument (QIAGEN) using 26K 24-well nanoplates and the QIAcuity Probe PCR and One-Step Viral RT-PCR kits. Primers and probes were 5′-[…], 5′-[…], and 5′-[…] for the quantification of minus-strand strong-stop cDNA, and 5′-[…], 5′-[…], and 5′-[…] CGT for viral RNA quantification.

[2] = tested on: HIV-1 NL4-3 virus produced in MT4 cells; assay: infectivity of virus particles by the CPRG method in HeLa P4 cells; format: cell-based; conditions: viruses recovered after MT4 cells were exposed to 10 µM drugs
Experimental: We used the CPRG method developed in HeLa P4 cells grown in 96-well plates to measure the infectivity of virus particles, as low levels of virus were recovered after exposure of infected MT4 cells to different drug concentrations. In this assay, expression of the LacZ gene is under the control of the HIV-1 LTR, and its level of trans-activation correlates with the level of expression of HIV-1 Tat. HeLa P4 cells were incubated with normalized amounts of virus as measured by the P24 assay, and the expression of β-galactosidase was determined by the CPRG assay (Fig. 5).
Fig 5 Infectivity of newly formed HIV-1 particles produced in the presence of drugs. MT4 cells were infected with the NL4-3 virus. […] The infectivity of HIV-1 viruses was determined by the CPRG method. […]
Replication of the NL4-3 virus was determined either by the ELISA technique or in HeLa-P4 cells by the CPRG method as described previously ([29]). These are HeLa CD4 LTR-lacZ cells in which the expression of lacZ is induced by the HIV transactivator Tat, allowing precise quantification of the infectivity of HIV-1. The viral titer was determined by quantifying β-galactosidase activity in HeLa-P4 lysates in a colorimetric assay based on the cleavage of chlorophenol red-β-D-galactopyranoside (CPRG) by β-galactosidase. The cytotoxicity is evaluated by the MTT assay.

[3] = molecular target: mLysRS (Homo sapiens, UniProt Q15046); assay: tRNA aminoacylation assay; format: biochemical; conditions: drug added up to 1 mM
Chain of mLysRS (Q15046 31-625 isoform Q15046-2): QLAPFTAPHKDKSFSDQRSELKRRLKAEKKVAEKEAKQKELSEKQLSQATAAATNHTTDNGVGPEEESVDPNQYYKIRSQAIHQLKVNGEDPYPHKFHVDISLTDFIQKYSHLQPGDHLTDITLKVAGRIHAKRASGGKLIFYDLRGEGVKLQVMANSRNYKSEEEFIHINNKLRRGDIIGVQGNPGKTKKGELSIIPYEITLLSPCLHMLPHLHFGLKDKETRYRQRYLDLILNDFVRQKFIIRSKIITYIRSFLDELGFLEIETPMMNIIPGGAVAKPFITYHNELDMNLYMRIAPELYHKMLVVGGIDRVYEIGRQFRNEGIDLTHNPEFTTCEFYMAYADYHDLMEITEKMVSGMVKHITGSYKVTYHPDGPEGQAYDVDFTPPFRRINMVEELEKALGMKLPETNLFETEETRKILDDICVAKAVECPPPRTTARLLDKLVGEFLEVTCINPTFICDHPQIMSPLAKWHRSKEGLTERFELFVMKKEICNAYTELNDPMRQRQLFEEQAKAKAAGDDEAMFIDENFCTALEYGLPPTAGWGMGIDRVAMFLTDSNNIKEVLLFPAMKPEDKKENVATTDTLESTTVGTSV
Experimental: Initial rates of tRNA aminoacylation were measured at 25°C in 0.1 mL of 20 mM Imidazole-HCl buffer (pH 7.5), 100 mM KCl, 0.5 mM DTT, 12 mM MgCl2, 2 mM ATP, 180 µM ^14C-labeled lysine (NEN; 16.66 Ci/mol), and saturating amounts of global yeast tRNA ([30]). The incubation mixture contained catalytic amounts (2 nM) of mLysRS appropriately diluted in 10 mM Tris-HCl (pH 7.5), 10 mM 2-mercaptoethanol, containing bovine serum albumin at 4 mg/mL. Inhibitors were added at final concentrations ranging from 3.9 to 1,000 µM. One unit of activity is the amount of enzyme producing 1 nmol of lysine-tRNA^Lys/min, at 25°C.
Fig. S5. Effect of inhibitors on mLysRS activity. The tRNA-aminoacylation activity of mLysRS
was determined in the presence of increasing concentrations of the drugs. Two independent
experiments were performed and standard deviations are shown.
Fig. 6. Raw data of quantification of minus-strand strong stop viral DNA and viral RNA by
digital PCR from viruses recovered after 72 h incubation in the presence of 10 µM of the drugs.

Compound: CN1CCCC(n2nc(Cc3ccc(Cl)cc3)c3ccccc3c2=O)CC1 (stereo not drawn) [azelastine]
- minus-strand strong stop cDNA in viruses, normalized to viral RNA [1]: significantly reduced
- infectivity of viruses compared with wild-type viruses [2]: less than 4%
- inhibition of Lysyl-tRNA^Lys synthesis [3]: did not inhibit
